Reference: ChEMBL document CHEMBL6153137, “Design, Synthesis, and Biological Evaluation of Novel Orally Available Covalent CDK12/13 Dual Inhibitors for the Treatment of Tumors” (J Med Chem, 2025)
pIC50: −log10 of the molar value. Activity calls are given as the source filed them. No cut-off for these calls is given here.

What was measured:
[1] = system: HCT-116; assay: Antiproliferative activity against PARG KO human HCT-116 cells assessed as reduction in cell viability incubated for 7 days by CellTiter-Glo reagent based luminescence analysis; assay type: functional; details: HCT-116, 168 h
[2] = Protein binding in mouse plasma assessed as free fraction at 400 uM incubated for 4 hrs by equilibrium dialysis method based LC-MS/MS analysis; assay type: ADME, cell-free
[3] = Half life in female Sprague-Dawley rat at 15 mg/kg, po administered once daily via gavage for 28 days; assay type: ADME, organism-based; details: in vivo, time 28 day
[4] = Toxicity against Sprague-Dawley rat assessed as abnormalities at 1 mg/kg, iv measured for 24 hrs; assay type: organism-based; details: in vivo
[5] = AUC(0 to t) in male Sprague-Dawley rat at 10 mg/kg, po administered once daily via gavage for 28 days; assay type: ADME, organism-based; details: in vivo, 672 h, time 28 day
[6] = molecular target: Cyclin-dependent kinase 9 (Homo sapiens) (UniProt P50750); assay: Inhibition of CDK9 in human SUM149PT cells assessed as reduction in level of phosphorylation of Ser7 on RNA Pol II CTD at 500 nM incubated for 12 hrs followed by drug wash-out and measured after 72 hrs by western blot analysis; assay type: cell-based
[7] = molecular target: Cytochrome P450 2C9 (Homo sapiens, UniProt P11712); assay: Inhibition of CYP2C9 in human liver microsomes assessed as inhibition of diclofenac-4-hydroxylation incubated for 10 mins in presence of NADPH by LC-MS/MS analysis; assay type: ADME, Microsome
[8] = molecular target: CDK12/Cyclin K (Homo sapiens) (UniProt O75909+Q9NYV4); assay: Irreversible covalent binding affinity to CDK12/CyclinK (unknown origin) at Cys1039 residue assessed as 1:1 complex formation at 5 uM measured after 3 hrs by peptide mapping based mass spectrometric analysis; assay type: protein-complex assay
[9] = Toxicity against female Sprague-Dawley rat assessed as effect on hemoglobin level at 7.5 to 30 mg/kg, po administered once daily via gavage for 28 days and measured on day 29; assay type: organism-based; details: in vivo, 696 h, dose 7.5-30 mg/kg, time 29 day
[10] = molecular target: Cyclin-dependent kinase 7 (Homo sapiens) (UniProt P50613); assay: Inhibition of CDK7 (unknown origin) at 5 uM by DiscoverX KinomeScan ScanMAX analysis
[11] = Toxicity against male Sprague-Dawley rat assessed as increase in neutrophils content at 10 to 40 mg/kg, po administered once daily via gavage for 28 days and measured on day 29; assay type: organism-based; details: in vivo, 696 h, dose 10-40 mg/kg, time 29 day
[12] = Toxicity against female Sprague-Dawley rat assessed as effect on mean corpuscular hemoglobin at 7.5 to 30 mg/kg, po administered once daily via gavage for 28 days and measured on day 29; assay type: organism-based; details: in vivo, 696 h, dose 7.5-30 mg/kg, time 29 day
[13] = Toxicity against female Sprague-Dawley rat assessed as effect on phosphorus level in blood at 7.5 to 30 mg/kg, po administered once daily via gavage for 28 days and measured on day 29; assay type: organism-based; details: in vivo, 696 h, dose 7.5-30 mg/kg, time 29 day
[14] = Half life in male Sprague-Dawley rat at 40 mg/kg, po administered once daily via gavage for 28 days; assay type: ADME, organism-based; details: in vivo, time 28 day
[15] = Ratio of drug level in tumor to plasma in Balb/c mouse xenografted with human SUM149PT cells at 60 mg/kg, po administered via gavage and measured after 2 hrs; assay type: ADME, organism-based
[16] = molecular target: CDK7/Cyclin H/MNAT1 (Homo sapiens, UniProt P50613); assay: Inhibition of human recombinant N-terminal 6X His-tagged CDK7/CCNH/N-terminal 6X His-tagged MNAT1 expressed in HEP Sf9 cells using ATP as substrate measured after 60 mins by ADP-Glo reagent based luminescence assay
[17] = Toxicity against male Sprague-Dawley rat assessed as effect on red blood cells level at 10 to 40 mg/kg, po administered once daily via gavage for 28 days and measured on day 29; assay type: organism-based; details: in vivo, 696 h, dose 10-40 mg/kg, time 29 day
[18] = Half life in Sprague-Dawley rat at 15 mg/kg, po measured for 24 hrs by LC-MS/MS analysis; assay type: ADME, organism-based; details: in vivo
[19] = Toxicity against male Sprague-Dawley rat assessed as effect on mean corpuscular hemoglobin at 10 to 40 mg/kg, po administered once daily via gavage for 28 days and measured on day 29; assay type: organism-based; details: in vivo, 696 h, dose 10-40 mg/kg, time 29 day
[20] = Toxicity against Balb/c mouse xenografted with human SUM149PT cells assessed as body weight at 30 to 60 mg/kg, po administered once daily via gavage and measured every 3 days for 3 weeks; assay type: organism-based; details: in vivo, 504 h, dose 30-60 mg/kg
[21] = Toxicity against female Sprague-Dawley rat assessed as effect on creatinine level in blood at 7.5 to 30 mg/kg, po administered once daily via gavage for 28 days and measured on day 29; assay type: organism-based; details: in vivo, 696 h, dose 7.5-30 mg/kg, time 29 day
[22] = AUC(0 to t) in female Sprague-Dawley rat at 15 mg/kg, po administered via gavage and measured on day 1; assay type: ADME, organism-based; details: in vivo, 24 h, time 1 day
[23] = Cmax in female Sprague-Dawley rat at 15 mg/kg, po administered via gavage and measured on day 1; assay type: ADME, organism-based; details: in vivo, time 1 day
[24] = Toxicity against female Sprague-Dawley rat assessed as effect on monocytes level at 7.5 to 30 mg/kg, po administered once daily via gavage for 28 days and measured on day 29; assay type: organism-based; details: in vivo, 696 h, dose 7.5-30 mg/kg, time 29 day
[25] = Cmax in male Sprague-Dawley rat at 40 mg/kg, po administered once daily via gavage for 28 days; assay type: ADME, organism-based; details: in vivo, time 28 day
[26] = Oral bioavailability in Sprague-Dawley rat at 5 mg/kg measured for 24 hrs by LC-MS/MS analysis; assay type: ADME, organism-based; details: in vivo
[27] = AUC(0 to t) in female Sprague-Dawley rat at 15 mg/kg, po administered once daily via gavage for 28 days; assay type: ADME, organism-based; details: in vivo, 672 h, time 28 day
[28] = Half life in Sprague-Dawley rat at 5 mg/kg, po measured for 24 hrs by LC-MS/MS analysis; assay type: ADME, organism-based; details: in vivo
[29] = Cmax in female Sprague-Dawley rat at 30 mg/kg, po administered via gavage and measured on day 1; assay type: ADME, organism-based; details: in vivo, time 1 day
[30] = molecular target: Cyclin-dependent kinase 5/CDK5 activator 1 (Homo sapiens) (UniProt Q00535+Q15078); assay: Inhibition of human recombinant N-terminal GST-tagged CDK5/N-terminal GST-tagged p35NCK expressed in HEP Sf9 cells using ATP as substrate at 2 uM measured after 60 mins by ADP-Glo reagent based luminescence analysis
[31] = Half life in male Sprague-Dawley rat at 20 mg/kg, po administered via gavage and measured on day 1; assay type: ADME, organism-based; details: in vivo
[32] = system: MV4-11; assay: Antitumor activity against human MV4-11 cells xenografted in Balb/c nude mouse assessed as inhibition of tumor growth at 15 mg/kg, po administered once daily via gavage and measured on day 21; assay type: functional; details: MV4-11, 504 h, time 21 day, read-out: TGI
[33] = Cmax in Sprague-Dawley rat at 15 mg/kg, po measured for 24 hrs by LC-MS/MS analysis; assay type: ADME, organism-based; details: in vivo
[34] = Toxicity against male Sprague-Dawley rat assessed as effect on hematocrit level at 10 to 40 mg/kg, po administered once daily via gavage for 28 days and measured on day 29; assay type: organism-based; details: in vivo, 696 h, dose 10-40 mg/kg, time 29 day
[35] = Clearance in Sprague-Dawley rat at 1 mg/kg, iv measured for 24 hrs by LC-MS/MS analysis; assay type: ADME, organism-based; details: in vivo
[36] = Toxicity against male Sprague-Dawley rat assessed as effect on mean corpuscular volume at 10 to 40 mg/kg, po administered once daily via gavage for 28 days and measured on day 29; assay type: organism-based; details: in vivo, 696 h, dose 10-40 mg/kg, time 29 day

Chain of Cyclin-dependent kinase 9 (Homo sapiens) (P50750 whole entry): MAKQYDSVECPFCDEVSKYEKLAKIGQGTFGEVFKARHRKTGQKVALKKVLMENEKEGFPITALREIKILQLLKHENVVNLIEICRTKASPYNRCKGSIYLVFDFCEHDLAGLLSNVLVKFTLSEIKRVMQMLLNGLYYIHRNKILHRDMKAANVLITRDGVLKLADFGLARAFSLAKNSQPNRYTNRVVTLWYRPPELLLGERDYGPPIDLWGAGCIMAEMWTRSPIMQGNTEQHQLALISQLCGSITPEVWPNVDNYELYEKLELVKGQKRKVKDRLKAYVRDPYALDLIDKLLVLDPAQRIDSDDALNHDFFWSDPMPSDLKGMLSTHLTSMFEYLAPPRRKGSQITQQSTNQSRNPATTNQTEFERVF
Chain of CDK12/Cyclin K (Homo sapiens) (O75909 whole entry, looked up): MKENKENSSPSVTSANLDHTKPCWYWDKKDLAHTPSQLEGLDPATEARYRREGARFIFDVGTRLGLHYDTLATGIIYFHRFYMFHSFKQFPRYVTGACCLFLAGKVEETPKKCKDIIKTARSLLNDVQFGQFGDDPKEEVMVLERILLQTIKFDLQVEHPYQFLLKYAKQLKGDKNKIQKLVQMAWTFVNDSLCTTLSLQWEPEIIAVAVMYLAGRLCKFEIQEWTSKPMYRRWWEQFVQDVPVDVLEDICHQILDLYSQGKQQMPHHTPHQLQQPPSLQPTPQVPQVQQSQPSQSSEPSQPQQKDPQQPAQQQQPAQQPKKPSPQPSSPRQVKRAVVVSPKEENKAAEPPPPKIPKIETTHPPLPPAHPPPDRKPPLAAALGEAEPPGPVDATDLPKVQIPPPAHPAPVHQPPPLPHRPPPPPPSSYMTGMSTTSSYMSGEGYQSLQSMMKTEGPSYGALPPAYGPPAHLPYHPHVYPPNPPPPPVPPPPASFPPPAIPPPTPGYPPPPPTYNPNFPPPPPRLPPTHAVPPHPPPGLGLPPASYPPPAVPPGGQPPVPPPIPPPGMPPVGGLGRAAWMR
Chain of CDK12/Cyclin K (Homo sapiens) (Q9NYV4 whole entry, looked up): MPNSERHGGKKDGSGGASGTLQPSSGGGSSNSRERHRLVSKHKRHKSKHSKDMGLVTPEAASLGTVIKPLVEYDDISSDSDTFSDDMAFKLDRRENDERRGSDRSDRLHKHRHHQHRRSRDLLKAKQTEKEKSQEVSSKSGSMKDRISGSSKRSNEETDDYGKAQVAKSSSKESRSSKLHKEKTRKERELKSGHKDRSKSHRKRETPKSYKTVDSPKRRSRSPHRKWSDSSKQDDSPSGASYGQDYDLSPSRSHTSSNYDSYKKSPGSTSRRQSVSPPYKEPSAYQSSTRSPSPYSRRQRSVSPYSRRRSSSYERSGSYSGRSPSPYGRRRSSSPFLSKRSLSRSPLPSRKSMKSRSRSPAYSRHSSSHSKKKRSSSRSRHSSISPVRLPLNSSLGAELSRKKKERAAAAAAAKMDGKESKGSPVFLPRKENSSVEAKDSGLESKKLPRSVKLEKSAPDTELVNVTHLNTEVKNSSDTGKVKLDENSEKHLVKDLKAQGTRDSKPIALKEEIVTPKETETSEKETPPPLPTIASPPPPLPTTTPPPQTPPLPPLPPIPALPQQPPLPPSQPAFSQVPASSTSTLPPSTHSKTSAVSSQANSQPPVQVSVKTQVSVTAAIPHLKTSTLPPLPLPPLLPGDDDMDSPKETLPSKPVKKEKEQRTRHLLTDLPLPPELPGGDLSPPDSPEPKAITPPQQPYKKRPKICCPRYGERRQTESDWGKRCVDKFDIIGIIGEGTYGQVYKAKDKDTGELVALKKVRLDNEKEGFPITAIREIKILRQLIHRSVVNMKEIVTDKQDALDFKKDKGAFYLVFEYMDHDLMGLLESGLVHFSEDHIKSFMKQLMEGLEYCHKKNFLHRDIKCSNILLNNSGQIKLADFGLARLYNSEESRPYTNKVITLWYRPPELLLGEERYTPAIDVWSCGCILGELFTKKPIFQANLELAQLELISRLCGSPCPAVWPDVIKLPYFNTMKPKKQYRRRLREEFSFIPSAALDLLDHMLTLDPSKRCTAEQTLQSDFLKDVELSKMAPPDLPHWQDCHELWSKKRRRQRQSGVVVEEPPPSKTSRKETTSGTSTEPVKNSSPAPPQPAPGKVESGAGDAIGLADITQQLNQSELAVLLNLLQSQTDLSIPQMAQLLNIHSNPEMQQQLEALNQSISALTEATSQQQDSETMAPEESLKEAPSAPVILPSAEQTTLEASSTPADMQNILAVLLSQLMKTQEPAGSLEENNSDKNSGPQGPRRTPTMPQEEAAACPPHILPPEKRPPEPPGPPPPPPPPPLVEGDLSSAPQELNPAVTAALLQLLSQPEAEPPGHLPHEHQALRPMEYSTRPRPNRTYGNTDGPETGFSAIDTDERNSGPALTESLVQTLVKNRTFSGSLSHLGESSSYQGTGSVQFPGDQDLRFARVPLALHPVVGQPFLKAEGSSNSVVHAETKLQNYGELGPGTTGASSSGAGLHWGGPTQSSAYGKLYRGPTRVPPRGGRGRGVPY
Chain of CDK7/Cyclin H/MNAT1 (P51946 whole entry): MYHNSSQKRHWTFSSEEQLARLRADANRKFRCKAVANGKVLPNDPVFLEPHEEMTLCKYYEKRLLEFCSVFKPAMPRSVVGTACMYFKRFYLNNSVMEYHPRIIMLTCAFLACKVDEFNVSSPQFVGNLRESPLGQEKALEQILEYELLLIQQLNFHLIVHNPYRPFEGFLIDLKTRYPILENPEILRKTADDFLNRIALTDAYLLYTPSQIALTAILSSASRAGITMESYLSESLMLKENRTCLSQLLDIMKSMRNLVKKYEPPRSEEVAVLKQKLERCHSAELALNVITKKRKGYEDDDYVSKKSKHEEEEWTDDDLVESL
Chain of CDK7/Cyclin H/MNAT1 (P50613 whole entry): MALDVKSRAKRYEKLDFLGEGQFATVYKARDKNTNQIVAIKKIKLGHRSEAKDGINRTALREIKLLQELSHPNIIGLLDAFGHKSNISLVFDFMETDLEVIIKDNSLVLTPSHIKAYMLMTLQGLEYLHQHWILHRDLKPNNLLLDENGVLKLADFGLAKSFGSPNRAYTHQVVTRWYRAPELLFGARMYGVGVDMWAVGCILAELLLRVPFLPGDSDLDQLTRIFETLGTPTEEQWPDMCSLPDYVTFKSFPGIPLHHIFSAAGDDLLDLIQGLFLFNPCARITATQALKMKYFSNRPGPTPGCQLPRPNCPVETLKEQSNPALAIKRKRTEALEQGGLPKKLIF
Chain of CDK7/Cyclin H/MNAT1 (P51948 whole entry, further chain): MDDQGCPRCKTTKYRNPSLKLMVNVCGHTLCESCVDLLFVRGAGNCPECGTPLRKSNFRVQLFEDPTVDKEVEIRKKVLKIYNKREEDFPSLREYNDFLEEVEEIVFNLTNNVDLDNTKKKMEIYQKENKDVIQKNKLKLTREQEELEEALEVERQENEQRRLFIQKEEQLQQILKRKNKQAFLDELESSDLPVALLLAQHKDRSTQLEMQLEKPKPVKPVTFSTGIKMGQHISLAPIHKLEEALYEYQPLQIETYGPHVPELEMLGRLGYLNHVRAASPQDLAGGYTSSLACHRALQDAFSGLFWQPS
Chain of Cytochrome P450 2C9 (P11712 whole entry): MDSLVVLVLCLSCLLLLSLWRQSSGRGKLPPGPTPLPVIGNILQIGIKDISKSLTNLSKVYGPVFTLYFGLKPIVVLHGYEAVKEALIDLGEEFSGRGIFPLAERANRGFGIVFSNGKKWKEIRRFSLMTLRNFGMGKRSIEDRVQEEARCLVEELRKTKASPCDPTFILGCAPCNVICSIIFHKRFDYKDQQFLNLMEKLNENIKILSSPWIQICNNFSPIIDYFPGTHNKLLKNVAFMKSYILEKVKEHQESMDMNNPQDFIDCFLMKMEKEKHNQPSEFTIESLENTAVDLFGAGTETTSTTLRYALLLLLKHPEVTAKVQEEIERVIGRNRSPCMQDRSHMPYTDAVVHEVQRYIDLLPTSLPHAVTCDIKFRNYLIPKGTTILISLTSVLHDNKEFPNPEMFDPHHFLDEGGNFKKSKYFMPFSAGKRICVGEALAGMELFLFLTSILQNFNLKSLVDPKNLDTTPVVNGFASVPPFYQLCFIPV
Chain of Cyclin-dependent kinase 5/CDK5 activator 1 (Homo sapiens) (Q00535 whole entry): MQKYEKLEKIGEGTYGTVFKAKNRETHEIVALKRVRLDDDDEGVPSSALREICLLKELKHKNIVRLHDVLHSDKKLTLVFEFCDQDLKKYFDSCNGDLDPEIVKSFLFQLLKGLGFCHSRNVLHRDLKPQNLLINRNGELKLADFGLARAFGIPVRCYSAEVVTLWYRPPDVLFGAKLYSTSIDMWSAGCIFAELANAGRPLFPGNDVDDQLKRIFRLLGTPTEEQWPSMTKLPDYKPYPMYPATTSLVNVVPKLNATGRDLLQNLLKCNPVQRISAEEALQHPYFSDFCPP
Chain of Cyclin-dependent kinase 5/CDK5 activator 1 (Homo sapiens) (Q15078 99-307 partner limits assumed): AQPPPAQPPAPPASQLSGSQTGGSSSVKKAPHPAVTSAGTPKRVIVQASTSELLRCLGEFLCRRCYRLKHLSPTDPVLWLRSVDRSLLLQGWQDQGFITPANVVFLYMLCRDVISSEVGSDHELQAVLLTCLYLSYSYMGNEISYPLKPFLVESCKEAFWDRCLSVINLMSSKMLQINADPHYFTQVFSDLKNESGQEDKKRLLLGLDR
Chain of Cyclin-dependent kinase 7 (Homo sapiens) (P50613 whole entry): as the sequence (P50613 whole entry) above

Q: With C=CC(=O)N1CCc2c(ncnc2N2CC[C@@H](Nc3ncc(Cl)c(OC)n3)C2)C1 as the compound, how does the pIC50 [1] read?
A: Its pIC50 is 6.91.

Q: And the fraction unbound at 4 h, 400 µM [2]?
A: Its fraction unbound at 4 h, 400 µM is 0.075.

Q: And the half-life [3]?
A: Its half-life is 2.3 h.

Q: What about the Activity [4] of the same compound?
A: The Activity was “Non-toxic”.

Q: And the AUCt [5]?
A: The AUCt was 1330 ng·h/mL.

Q: And the inhibition [6]?
A: The inhibition was “inactive”.

Q: And the pIC50 [7]?
A: Its pIC50 is less than 4.30.

Q: What about the Activity [8] of the same compound?
A: Its Activity is “Active”.

Q: And the Activity [9]?
A: The Activity was “Non-toxic”.

Q: What about the inhibition [10] of the same compound?
A: Its inhibition is “Active”.

Q: What about the Activity [11] of the same compound?
A: The Activity was “Toxic”.

Q: And the Activity [12]?
A: Its Activity is “Non-toxic”.

Q: What about the Activity [13] of the same compound?
A: The Activity was “Non-toxic”.

Q: What about the half-life [14] of the same compound?
A: Its half-life is 6.9 h.

Q: What about the Kp at 2 h [15] of the same compound?
A: Its Kp at 2 h is 0.42.

Q: And the pIC50 [16]?
A: Its pIC50 is 6.69.

Q: What about the Activity [17] of the same compound?
A: Its Activity is “Non-toxic”.

Q: And the half-life [18]?
A: The half-life was 1.81 h.

Q: And the Activity [19]?
A: Its Activity is “Non-toxic”.

Q: What about the Activity [20] of the same compound?
A: Its Activity is “Non-toxic”.

Q: What about the Activity [21] of the same compound?
A: Its Activity is “Non-toxic”.

Q: What about the AUCt [22] of the same compound?
A: Its AUCt is 3000 ng·h/mL.

Q: What about the Cmax [23] of the same compound?
A: The Cmax was 1280 ng/mL.

Q: What about the Activity [24] of the same compound?
A: Its Activity is “Non-toxic”.

Q: And the Cmax [25]?
A: Its Cmax is 2410 ng/mL.

Q: What about the bioavailability [26] of the same compound?
A: The bioavailability was 35.7%.

Q: And the AUCt [27]?
A: The AUCt was 3220 ng·h/mL.

Q: And the half-life [28]?
A: The half-life was 0.8 h.

Q: What about the Cmax [29] of the same compound?
A: The Cmax was 2200 ng/mL.

Q: And the inhibition [30]?
A: Its inhibition is 62%.

Q: What about the half-life [31] of the same compound?
A: Its half-life is 4.1 h.

Q: And the inhibition in vivo at 15 mg/kg [32]?
A: Its inhibition in vivo at 15 mg/kg is 31%.

Q: And the Cmax [33]?
A: The Cmax was 797 ng/mL.

Q: What about the Activity [34] of the same compound?
A: Its Activity is “Non-toxic”.

Q: What about the clearance [35] of the same compound?
A: The clearance was 62.4 mL/min/kg.

Q: And the Activity [36]?
A: The Activity was “Non-toxic”.
